Test: xn = mol fraction of the nth substance listed
Conditions: 100 kPa, Liquid; for viscosity: Falling or rolling sphere viscometry; for mass density: Vibrating tube method

CCCCCCCCCCCC(=O)OC [methyl dodecanoate] + CC1CCCCC1
Conditions	mass density [kg/m3]	viscosity [mPa·s]
293.15 K, x2 = 0	869.3	3.151
293.15 K, x2 = 0.1	863.68	2.838
293.15 K, x2 = 0.2	857.47	2.545
293.15 K, x2 = 0.3	850.62	2.264
293.15 K, x2 = 0.4001	842.9	2
293.15 K, x2 = 0.5001	834.34	1.743
293.15 K, x2 = 0.6	824.66	1.501
293.15 K, x2 = 0.6999	813.62	1.28
293.15 K, x2 = 0.8	801	1.071
293.15 K, x2 = 0.8999	786.46	0.887
298.15 K, x2 = 0	865.39	2.792
298.15 K, x2 = 0.1	859.76	2.527
298.15 K, x2 = 0.2	853.54	2.28
298.15 K, x2 = 0.3	846.68	2.041
298.15 K, x2 = 0.4001	838.94	1.811
298.15 K, x2 = 0.5001	830.36	1.587
298.15 K, x2 = 0.6	820.65	1.373
298.15 K, x2 = 0.6999	809.56	1.177
298.15 K, x2 = 0.8	796.88	0.992
298.15 K, x2 = 0.8999	782.25	0.825
303.15 K, x2 = 0	861.46	2.504
303.15 K, x2 = 0.1	855.83	2.279
303.15 K, x2 = 0.2	849.6	2.06
303.15 K, x2 = 0.3	842.72	1.85
303.15 K, x2 = 0.4001	834.97	1.646
303.15 K, x2 = 0.5001	826.36	1.448
303.15 K, x2 = 0.6	816.61	1.261
303.15 K, x2 = 0.6999	805.48	1.087
303.15 K, x2 = 0.8	792.75	0.919
303.15 K, x2 = 0.8999	778.03	0.77
308.15 K, x2 = 0	857.53	2.263
308.15 K, x2 = 0.1	851.9	2.064
308.15 K, x2 = 0.2	845.67	1.876
308.15 K, x2 = 0.3	838.76	1.693
308.15 K, x2 = 0.4001	830.99	1.512
308.15 K, x2 = 0.5001	822.36	1.339
308.15 K, x2 = 0.6	812.57	1.168
308.15 K, x2 = 0.6999	801.4	1.007
308.15 K, x2 = 0.8	788.6	0.858
308.15 K, x2 = 0.8999	773.79	0.722
313.15 K, x2 = 0	853.61	2.049
313.15 K, x2 = 0.1	847.96	1.877
313.15 K, x2 = 0.2	841.71	1.714
313.15 K, x2 = 0.3	834.79	1.552
313.15 K, x2 = 0.4001	827.01	1.393
313.15 K, x2 = 0.5001	818.35	1.237
313.15 K, x2 = 0.6	808.52	1.086
313.15 K, x2 = 0.6999	797.31	0.937
313.15 K, x2 = 0.8	784.44	0.801
313.15 K, x2 = 0.8999	769.54	0.676
318.15 K, x2 = 0	849.69	1.875
318.15 K, x2 = 0.1	844.02	1.725
318.15 K, x2 = 0.2	837.77	1.581
318.15 K, x2 = 0.3	830.83	1.437
318.15 K, x2 = 0.4001	823.02	1.294
318.15 K, x2 = 0.5001	814.32	1.151
318.15 K, x2 = 0.6	804.45	1.012
318.15 K, x2 = 0.6999	793.18	0.879
318.15 K, x2 = 0.8	780.26	0.754
318.15 K, x2 = 0.8999	765.28	0.638
323.15 K, x2 = 0	845.76	1.729
323.15 K, x2 = 0.1	840.08	1.592
323.15 K, x2 = 0.2	833.81	1.461
323.15 K, x2 = 0.3	826.86	1.332
323.15 K, x2 = 0.4001	819.02	1.202
323.15 K, x2 = 0.5001	810.28	1.073
323.15 K, x2 = 0.6	800.37	0.946
323.15 K, x2 = 0.6999	789.06	0.826
323.15 K, x2 = 0.8	776.07	0.711
323.15 K, x2 = 0.8999	761	0.603
